Literature values as cited in patent publication US8227223B2, “Method and apparatus for facilitating evaluating migration of cells in vitro” (Applied Biophysics, Inc., priority 2009, dated 2012).
One block for each compound: values may come before it.

What was measured:
[1] = test system: muscarinic receptor; details: CHO cells over expressing the muscarinic receptor
[2] = test system: β-adrenergic receptor; details: BAEC endothelial cells
[3] = test system: confluent bovine aortic endothelial cells

change of impedance upon binding of the agonist ([1]; impedance at 4000 Hz): doubling of impedance
Compound: C[N+](C)(C)CCOC(N)=O [carbachol]

Compound: CC(C)NCC(O)c1ccc(O)c(O)c1 (stereo not shown) [isoproterenol]
change of impedance of the cell layer upon agonist binding [2]: readily measured increase in the impedance

inhibition of the carbachol impedance response ([1]; antagonist against carbachol): can be inhibited
Compound: CN1CCN(CC(=O)N2c3ccccc3C(=O)Nc3cccnc32)CC1 [pirenzepine]

Compound: thrombin
change of impedance upon exposure (barrier function) [3]: drop in impedance
